Assay results from patent US10617678B2, “Treatment of restenosis using temsirolimus” (MERCATOR MEDSYSTEMS, INC., priority 2016, dated 2020).
Entries after “also recorded” stand apart in the source; their conditions may differ.

What was measured:
[1] = system: cell proliferation in the vessel wall and adventitia; test: Ki-67 staining of cellular proliferation in injured femoral vessels; assay type: in vivo, Yorkshire pigs; conditions: day 3, 7 and 28; 1.5 ml of 238 μg/ml perivascular injection
[2] = system: femoral artery injured by angioplasty overstretch; test: Histopathology in porcine model of femoral artery injury; assay type: in vivo, Yorkshire pigs
[3] = clinical observations, clinical pathology, post mortem tissue analysis; adventitial injection with Bullfrog device
[4] = Pharmacokinetics: whole blood concentrations after adventitial injection; assay type: in vivo, Yorkshire pigs
Method: Temsirolimus Preparation. The 25 mg/ml of Torisel® (temsirolimus) was diluted to 10 mg/ml with the supplied diluent and further diluted to 476 μg/ml in 0.9% sodium chloride solution. Then, the 476 μg/ml temsirolimus was mixed at 1:1 ratio with a contrast medium, Isovue-370, for a final temsirolimus concentration of 238 μg/ml. This temsirolimus preparation was subsequently administered in temsirolimus-treated group pigs. Similarly, a control solution was prepared by mixing 0.9% sodium chloride solution at 1:1 ratio with a contrast medium, Isovue-370. This control solution was administered in control group pigs.
Temsirolimus-Treated Group.
Pharmacokinetics. Whole blood samples were taken following each injection at 5 minutes, 20 minutes, 1 hour, and then 24 hours and upon sacrifice. Whole blood samples were analyzed for circulating temsirolimus and sirolimus concentrations. FIG. 14A and FIG. 14B show the levels of temsirolimus and sirolimus, respectively, circulating in whole blood at 1 hour, and 3, 7, and 28 days post-procedure. The mean temsirolimus level in whole blood was highest at 1 hour after the first injection (32.1±11.0 ng/mL) and decreased by an order of magnitude within 24 hours (2.4±1.0 ng/mL).

[5] = Pharmacokinetics: concentrations in harvested vessel tissues; assay type: in vivo, Yorkshire pigs; conditions: post-dosing
[6] = 1.5 ml of 238 μg/ml perivascular injection, injured femoral artery

Which results are given for `CO[C@H]1C[C@@H]2CC[C@@H](C)[C@@](O)(O2)C(=O)C(=O)N2CCCC[C@H]2C(=O)O[C@H]([C@H](C)C[C@@H]2CC[C@@H](OC(=O)C(C)(CO)CO)[C@H](OC)C2)CC(=O)[C@H](C)/C=C(\C)[C@@H](O)[C@@H](OC)C(=O)[C@H](C)C[C@H](C)/C=C/C=C/C=C/1C` [temsirolimus]?
cell proliferation throughout the vessel wall (Ki-67) compared to controls [1]: moderate to marked decrease; also recorded: reduced cellular proliferation; neointima formation [2, 6]: no or minimal to mild and non-stenosing neointima formation; re-endothelialization [2, 6]: complete or near complete re-endothelialization; healing of treated vessels (histopathology) ([2]; 1.5 ml of 238 μg/ml temsirolimus into adventitia/perivascular tissue of each injured femoral artery): fully or nearly fully healed as early as day 7; local or systemic toxicity [3]: no evidence of local or systemic toxicity; temsirolimus concentration in whole blood ([4]; 7 days post-procedure): below the limit of quantitation; temsirolimus concentration in whole blood ([4]; 28 days post-procedure): below the limit of quantitation; concentration at 1 h ([4]; Yorkshire, pig, whole blood, 357 µg per artery (1.5 ml of 238 µg/ml), 1 hour after the first injection, read-out: mean temsirolimus level in whole blood): 32.1 ± 11 ng/mL; concentration at 24 h ([4]; Yorkshire, pig, whole blood, 357 µg per artery (1.5 ml of 238 µg/ml), 24 hours, read-out: mean temsirolimus level in whole blood): 2.4 ± 1 ng/mL; temsirolimus concentration in whole blood ([4]; between 24 hours and 3 days): continued to decrease; time temsirolimus was measured in local vascular tissue [5]: up to 28 days
